Data as given in patent publication US20150359867A1, “OVARIAN CANCER VACCINES AND VACCINATION METHODS” (IMMUNOCELLULAR THERAPEUTICS, LTD., priority 2013, published 2015).

What follows are sequences tested on T2 cells pulsed with CD133 HLA-A2 peptides (assay: IFN-γ ELISPOT assay of antigen-specific T cell response). Conditions: 1×10^5 CTL co-cultured with 7.5×10^4 T2 cells pulsed with 10 μg/ml of peptides, 20 hours; FIG. 3.
Assay type: cell-based, human
Method: To test this hypothesis, effector CD8^+′ T cells were isolated and co-cultured with HLA-A2+ DC pulsed with CD133 peptides to induce antigen-specific CTLs. Antigens-specific T cell responses were evaluated by an IFN-γ ELISPOT assay.
Human monocyte-derived DC was generated using previously described methods. Briefly, monocytes were isolated from PBMC by magnetic immunoselection using EasySep human monocyte enrichment kit (Stem Cell Technologies) in accordance with the manufacturer's instructions and then cultured at […] in 20 ml of GMP CellGenix DC serum-free medium (Cat#20801-0500, Cellgenix) supplemented with 1000 unit/ml of recombinant human GM-CSF (Cat#AF-300-03, Peprotech, Inc) and recombinant human IL-4(Cat#AF-200-04, Peprotech, Inc). Cells were harvested after 3 or 6 days of culture. The DCs were washed and plated in 6-well plates at a concentration of 5×10^6 cells/well IFN-γ (1000 unit/ml) and monophosphoryl lipid A (MPLA, 20-50 μg/ml) was added into the wells to mature the DC for 24 hr or 48 hrs. Prior to some assays, DC was frozen and stored into liquid nitrogen.
In order to evaluate antigen-specific immune responses, CD8^+ T cells were isolated from fresh or frozen apheresis by positive selection using Dynabeads® CD8 Positive Isolation Kit (Life Technologies, Grand Island, N.Y.) and co-cultured with autologous mDC for four weeks. DCs were added weekly. Briefly, mDC was pulsed with synthetic peptides ([…]) for 6-8 hours at 37° C., and then treated with 20 μg/ml Mitomycin C (Sigma-Aldrich, St. Louis, Mo.) for 25 min at 37° C. and 5% CO2. […]
Antigen-specific immune responses were evaluated by the IFN-γ Elispot kit (BD Biosciences) following previously described methods. […] The colored spots, representing cytokine-producing cells, were counted under a dissecting microscope. The results were evaluated by an automated ELISPOT reader system using KS ELISPOT 4.3 software.

| Sequence | antigen-specific T cell response: recognition of peptide-pulsed T2 cells by peptide-specific CTLs (IFN-γ ELISPOT) |
| --- | --- |
| YLQWIEFSI (listed as Homo sapiens) [CD133p753, CD133 HLA-A2 peptide] | can efficiently recognize T2 pulsed with these antigens and boost the T cell immune response |
| FLLPALIFAV (listed as Homo sapiens) [CD133p804, CD133 HLA-A2 peptide, position 804-813] | can efficiently recognize T2 pulsed with these antigens and boost the T cell immune response |
| ILSAFSVYV (listed as Homo sapiens) [CD133p405, CD133 HLA-A2 peptide, position 405-413] | can efficiently recognize T2 pulsed with these antigens and boost the T cell immune response |
